Assay results as given in patent publication US20110020925A1, “NEW MODULATING MOLECULES FOR AN IMPROVED REGULATED EXPRESSION SYSTEM” (BAYER SCHERING PHARMA AKTIENGESELLSCHAFT, priority 2007, published 2011).
Where a chain is given by its changes, count along the chain named.

Experiments:
murine acute EAE model = test: Mouse acute EAE model, clinical scoring; type: in vivo, SJL mice; conditions: for clinical scores of EAE, positive controls: i.p. twice daily, Mesopram 9 mg/kg, Prednisolone 2.5 mg/kg
Mx1 RNA [1] = test: Mx1 RNA induction in L929 cells (TaqMan RT-PCR); type: cell-based, murine
Procedure: FIG. 5 illustrates Mx1 RNA induction in vitro (in L929 cells) by mIFN-ÿ. L929 cells were seeded at 5×10^5 cells in 6 well plates and stimulated with increasing amounts of purified recombinant mIFN-ÿ protein. Four hours after treatment the cells were harvested, RNA isolated, and Mx1 RNA quantitated by TaqMan analysis. Mx1 RNA expression is plotted as the fold increase relative to GAPDH RNA.
A quantitative PCR/RT-PCR assay was developed to quantitate the levels of Mx1 mRNA in murine PBMC's. Specifically, peripheral blood mononuclear cells (PBMCs) were isolated from mice treated with either mIFN-β protein or following gene-based delivery of the mIFN-β gene. Blood samples obtained from treated mice were centrifuged on a ficoll cushion for 25 minutes at 2,000 rpm. Purified PBMCs were pelleted and RNA for the Mx1 assay was purified using the “RNAeasy” mini extraction kit from Qiagen. The RNA was stored in H2O at −80° C. Mx1 RT-PCR was performed using TaqMan® chemistry and analysis was done on the Applied Biosystems (ABI) PRISM® 7700 Sequence Detection instrument. For reverse transcription of the RNA and amplification of cDNA, the “One-step TaqMan® RNA” kit from ABI was used. […] The samples were analyzed with an Mx1-specific probe/primer combination. Mx1 expression was normalized to GAPDH expression measured in parallel using a standard assay from ABI. […]

Mx1 RNA [2] = test: Mx1 RNA induction in PBMCs of mice (quantitative RT-PCR) after mIFN-β protein or gene delivery; type: in vivo, C57BI/6 mice
Procedure: C57BI/6 mice were administered 15, 150, or 500 ng of purified recombinant mIFN-ÿ protein (specific activity-2.0×108 units/mg) by either i.v. (via tail vein) or i.m. injection (n=3 mice per group). At the specified time points post-injection mice were bled, and RNA was isolated from PBMCs. Mx1 RNA was measured by quantitative RT-PCR. The fold increase in Mx1 RNA is expressed relative to GAPDH values measured in the same samples. The controls include naive mice (N), and mice injected with the vehicle buffer only followed by Mx1 analysis at 2 hours (V2h) or 4h (V4h) post-injection. Each column represents the mean value+/−standard deviation.
A quantitative PCR/RT-PCR assay was developed to quantitate the levels of Mx1 mRNA in murine PBMC's. Specifically, peripheral blood mononuclear cells (PBMCs) were isolated from mice treated with either mIFN-β protein or following gene-based delivery of the mIFN-β gene. Blood samples obtained from treated mice were centrifuged on a ficoll cushion for 25 minutes at 2,000 rpm. […] The samples were analyzed with an Mx1-specific probe/primer combination. Mx1 expression was normalized to GAPDH expression measured in parallel using a standard assay from ABI.
B. Bolus Injection of mIFN-β Protein Induces Transient Biomarker Response In Vivo: The biomarker response after bolus injection of purified recombinant mIFN-β was measured in these studies.

IP-10 [3] = test: IP-10 plasma level in mice (ELISA) after mIFN-β protein or gene delivery; type: in vivo, C57BI/6 mice
Procedure: (§1) FIG. 7 illustrates induction levels of IP-10 (A) and JE (B) following i.v. or i.m. injection of murine IFN-ÿ protein. C57BI/6 mice were administered 15, 150, or 500 ng of purified recombinant mIFN-ÿ protein (specific activity=2.0×108 units/mg) by either i.v. (via tail vein) or i.m. injection (n=3 mice per group). The mice were bled at 2, 4, 6, 12, 24, and 48 hours post-injection, and the plasma levels of IP-10 and JE were measured by ELISA (R&D Systems).
FIG. 8 illustrates the induction of IP-10 following intramuscular injection of AAV-1-mIFN-ÿ DNA or mIFN-ÿ plasmid DNA with electroporation (EP) in mice. Normal mice (C57BI/6) were injected i.m. with either AAV-1-mIFN-ÿ (5×10^9 viral particles), or mIFN-ÿ plasmid DNA (150 ug) with electroporation. Mice were bled at the indicated time points and IP-10 levels in plasma were determined by ELISA. Each column represents the mean value+/−the standard deviation (n=5 mice per group).
C. Chemokines IP-10 and JE: During the analysis of plasma samples from mice treated with mIFN-β protein, two murine chemokines, IP-10 and JE the murine homologue of MCP-1 (monocyte chemoattractant protein, see e.g., Yoshimura, T (1989) FEBS Lett 244: 487-93), were also identified to have a similar response and activation to mIFN-β as Mx1 RNA (FIGS. 7 and 8). […]
The plasma samples were also analyzed for IP-10 and JE (FIGS. 7 and 8). […]

JE = JE plasma level in mice (ELISA) after mIFN-β protein or gene delivery; type: in vivo, C57BI/6 mice; conditions: each of three doses, i.v. or i.m.
Procedure: as §1
C. Chemokines IP-10 and JE: During the analysis of plasma samples from mice treated with mIFN-β protein, two murine chemokines, IP-10 and JE the murine homologue of MCP-1 (monocyte chemoattractant protein, see e.g., Yoshimura, T (1989) FEBS Lett 244: 487-93), were also identified to have a similar response and activation to mIFN-β as Mx1 RNA (FIGS. 7 and 8). A strong induction of IP-10 and JE was seen 2 hours after administration of mIFN-β protein either i.v. or i.m. IP-10 levels increased 3000-fold at the high dose delivered i.v. With each of the three mIFN-β doses tested, a rapid drop to background in the plasma levels of IP-10 and JE was observed by 24 hours.

[4] = Luciferase reporter gene assay for activity of purified mIFN-β protein; type: cell-based; conditions: commercial mIFN-β reference standard
Procedure: Specifically, the gene encoding mIFN-β was cloned into a pCEP4 expression vector (Invitrogen). The expression plasmid encoding mIFN-β was transiently transfected into 293E cells (Edge Biosystems) using X-tremeGene Ro-1539 Transfection Reagent (Roche). Murine IFN-β protein was purified from the medium by ion-exchange chromatography and by hydrophobic-interaction chromatography. The product was sialyzed and concentrated against dilution buffer (50 mM sodium acetate, pH 5.5, 150 mM sodium chloride, and 5% polypropylene glycol) and sterile filtered. Aliquots of the purified protein were stored at −80° C. The activity of the purified protein was assessed using a luciferase reporter gene assay (Hardy et al. (2001) Blood 97:473-482), using a commercial mIFN-β reference standard from Access Biomedical (San Diego, Calif.). The specific activity of the purified protein was 2×10^8 units/mg.

GAL-4 DBS = conditions: read-out: Kd for binding; cited from earlier work
IP-10 [5] = test: MFP dose/response and plasmid re-injection with BRES-1/mIFN plasmid pGT26 in vivo, IP-10 ELISA; parameters: species or system C57BI/6 mice; conditions: MFP 0.0033 mg/kg i.p. days 7-10
Procedure: The inducible mIFN-γ expression plasmid pGT26 was injected and electroporated on day 0 into hind limb muscles of C57BI/6 mice. […] Bleeds were taken on day 88 and 200, respectively. Serum was assayed for the chemokine IP-10 by ELISA. The results are shown as the mean (n=5 animals per group).
In addition, a complete pharmacokinetic profile of the expression of the therapeutic molecule (TM) can be performed using an activator molecule (AM) to determine the AM dose/response, as well as the kinetics of induction of TM expression following AM administration. […] Blood was collected at days 11 post-injection, and serum samples were assayed for IP-10 (see “Experimental Design” below for details). […] By day 67 the level of IP-10 had decreased several-fold from the day 11 level, so the plasmid DNA was re-injected at day 77.
For safety studies in humans, a complete characterization of the rate at which the activator molecule (AM) and TM expression can be turned “off” following withdrawal of the AM can be performed. The frequency of AM dosing necessary to achieve steady state levels of the TM can be evaluated.
• DNA solutions: Each mouse received 250 ug of plasmid DNA in 150 ul PBS. • DNA delivery: Adult male C57BI/6 mice were injected bilaterally on day 0 with 250 ug plasmid DNA per mouse in 150 ul PBS. […]

V729L/W755A RP (pBRES) = biological target: T1, V729L/W755A RP (pBRES) (Homo sapiens, UniProt P06401, V729L/W755A); test: Induction of luciferase, mSEAP or hIFNb from pBRES with V729L/W755A RP in C2C12 cells; type: cell-based, mouse; conditions: every orientation, three transgenes
T1 construct: expressed in transfected cells; host or cells: C2C12 mouse muscle cells
T1 sequence (P06401 640-914 V729L/W755A): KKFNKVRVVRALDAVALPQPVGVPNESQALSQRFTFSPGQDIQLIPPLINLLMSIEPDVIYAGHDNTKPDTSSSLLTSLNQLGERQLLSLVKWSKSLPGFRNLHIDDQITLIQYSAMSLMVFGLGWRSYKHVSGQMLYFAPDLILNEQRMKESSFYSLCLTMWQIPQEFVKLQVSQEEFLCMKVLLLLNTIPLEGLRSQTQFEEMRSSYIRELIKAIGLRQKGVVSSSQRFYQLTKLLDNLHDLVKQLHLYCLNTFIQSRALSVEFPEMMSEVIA

original RP (pGT45) = biological target: T2, original RP (pGT45) (Homo sapiens, UniProt P06401); test: In vivo mSEAP serum level after inducer, mice with pGT45 (original RP); conditions: 0.33 mg/kg or 1 mg/kg i.p. days 7-10
T2 construct: expressed in transfected cells; host or cells: mouse hind limb muscle in vivo (plasmid injection plus electroporation)
T2 sequence (P06401 640-914): T1 sequence (P06401 640-914 V729L/W755A) with L90V, A116W
Procedure: Upon the conclusion of in vitro testing, the divergent orientation of mSEAP and RP in pGT45 and pGT1048 were tested side-by-side in a mouse study. Mice were injected with plasmid DNA in the hind limbs and electroporation was used to deliver the DNA into the muscle cells on day 0. […] Six hours after the last injection on day 10, samples of blood were collected from the tail veins of the mice. mSEAP levels in the serum were measured to determine the level of this reporter expression following induction with compounds. Additional blood samples were collected prior to injection of inducers on day 7, as well as on days 18 and 25 to monitor the drop off of mSEAP expression.

Question: Which “clinical scores of EAE, positive controls” value (murine acute EAE model; first study) does the source give for `C[C@]12C=CC(=O)C=C1CC[C@@H]1[C@@H]2[C@@H](O)C[C@@]2(C)[C@H]1CC[C@]2(O)C(=O)CO` [Prednisolone] here?
Answer: The value was “significantly decreased clinical scores”.

Question: And the “clinical scores of EAE, positive controls” value (murine acute EAE model; second study)?
Answer: The value was “significantly decreased clinical scores”.

Question: With “mIFN-β: purified recombinant murine interferon-β protein expressed in 293E cells” as the compound, how does the “increase in the level of Mx1 RNA” value (Mx1 RNA [1]) read?
Answer: The value was 100 fold.

Question: What about the “EC50 of Mx1 RNA induction” value (Mx1 RNA [1]; 4 hours treatment) of the same compound?
Answer: The value was “approximately 50 pg/ml”.

Question: And the “time of highest Mx1 expression levels after injection” value (Mx1 RNA [2]; bolus protein)?
Answer: Its value is 2 h.

Question: And the “time after injection beyond which no Mx1 RNA levels above background were detected” value (Mx1 RNA [2]; bolus protein i.m.)?
Answer: The value was 12 h.

Question: What about the “time of drop to background of IP-10 plasma level” value (IP-10 [3]; each of three doses, i.v. or i.m.) of the same compound?
Answer: The value was ≤ 24 h.

Question: What about the “increase of IP-10 levels” value (IP-10 [3]; high dose delivered i.v.) of the same compound?
Answer: Its value is 3000 fold.

Question: And the “time of drop to background of JE plasma level” value (JE)?
Answer: The value was ≤ 24 h.

Question: What about the “specific activity of the purified protein” value [4] of the same compound?
Answer: The value was 2×10^8 units/mg.

Question: And the “clinical scores of EAE compared to vehicle treated mice” value (murine acute EAE model; first study, 30,000 units s.c. every other day)?
Answer: Its value is “did not reach statistical significance”.

Question: And the “clinical scores of EAE compared with vehicle treated mice” value (murine acute EAE model; first study, 100,000 units s.c. every other day)?
Answer: Its value is “significantly decreased clinical scores”.

Question: And the “clinical scores compared to the vehicle control treated mice” value (murine acute EAE model; second study, 100,000 Units s.c. every other day)?
Answer: Its value is “significantly decreased clinical scores”.

Question: For “GAL-4 residues 1-100: N-terminal DNA binding domain fragment of yeast GAL-4 protein”, which Kd (GAL-4 DBS) is on record?
Answer: The Kd was 3 nM.

Question: With `CCCOc1cc([C@]2(C)CNC(=O)O2)ccc1OC` [Mesopram] as the compound, how does the “clinical scores of EAE, positive controls” value (murine acute EAE model; first study) read?
Answer: Its value is “significantly decreased clinical scores”.

Question: And the “clinical scores of EAE, positive controls” value (murine acute EAE model; second study)?
Answer: Its value is “significantly decreased clinical scores”.

Question: What does the source list for `CC#C[C@]1(O)CC[C@H]2[C@@H]3CCC4=CC(=O)CCC4=C3[C@@H](c3ccc(N(C)C)cc3)C[C@@]21C` [MFP, 11-(4-dimethylaminophenyl)-17-hydroxy-17c-propynyl-4,9-estradiene-3-one]?
Answer: IP-10 levels at lowest MFP dose (IP-10 [5]): no increase over background IP-10 levels; activity of engineered RP when induced (V729L/W755A RP (pBRES)): retained full activity; response (serum mSEAP) of mice to inducer (original RP (pGT45)): responded well
